Measurements taken from US12473289B2, “Heterocyclic compounds as delta-5 desaturase inhibitors and methods of use” (Amgen Inc., priority 2019, dated 2025).
pIC50: −log10 of the molar value.

Columns and labels:
[1] = system: Diet-Induced Obese (DIO) mice; test: Assessment of D5D inhibitor in Diet-Induced Obese (DIO) mice; format: in vivo; conditions: for Blood glucose: day 52, 4-hour fasted; for Cholesterol / Insulin / LDL cholesterol / Triglycerides: day 52, plasma; for Fat mass / Lean mass: day 54, EchoMRI; for AA / DGLA: day 56, plasma; for Body weight / Liver weights / epididymal WAT / inguinal WAT: day 56
Excerpt: Assessment of D5D) Inhibitor in Diet-Induced Obese (DIO) Mice
Thirty-six male C57BL/6J DIO mice (Jackson Laboratories, stock No.: 380050) fed high-fat diet (Research Diets, Inc., D12492) for 14 weeks. All animals were given free access to water and chow. Animals were acclimated to per os dosing for 3 days prior to the start of the experiment. Animals were randomized on body weight, fat mass, lean mass, and blood glucose concentrations in to 4 groups of 8 animals per group. Animals were daily dosed per os with either: vehicle (2% hydroxypropyl methyl cellulose, 1% Tween 80 in water), Example 1-68 at 30 mg/kg, Example 1-34 at 10 mg/kg, and Example 1-27 at 10 mg/kg, all compounds were formulated in 2% hydroxypropyl methylcellulose, 1% Tween 80 in water. […] On day 52, a 4-hour fasted blood collection was performed, blood glucose was immediately measured, and plasma samples were created from the remaining blood and used to measure cholesterol, triglycerides, LDL cholesterol, and insulin. On day 54, body composition (EchoMRI) was determined. On day 56 the animals were sacrificed, and plasma was collected for measurement of DGLA and AA concentrations. Liver, epididymal white adipose tissue and inguinal white adipose tissue weights were recorded. Data was analyzed using GraphPad Prism v. 7.04.
All compounds led to weight loss over the course of the experiment (Table 28) compared to vehicle controls. Consistently fat and lean mass was reduced, along with lower inguinal and epididymal white adipose tissue (WAT) weights at necropsy. Blood glucose and plasma insulin levels were both reduced by the FADS1 inhibitors, along with reductions in plasma cholesterol, LDL cholesterol and triglycerides. Evidence of target engagement was established by observing increases in plasma DGLA and decreases in plasma AA.

Delta-5-Desaturase (D5D) [2] = target: Delta-5-Desaturase (D5D) (Mus musculus (Mouse), UniProt Q920L1); test: In vivo measurement of Delta-5-Desaturase inhibitory activity (plasma AA/DGLA ratio in DIO mice); conditions: single oral dose 30 mg/kg, read-out: Average % D5D Inhibition expressed as Plasma Endogenous AA/DGLA Ratio
Method: In vivo Measurement of Delta-5-Desaturase Inhibitory Activity
Diet-induced obese (DIO; Jackson Laboratories strain #3800050) mice were used to screen for pharmacodynamic (PD) activity of test compounds. Generally, 14 to 24 week old DIO mice, were administered test compounds formulated in the vehicle of 2% hydroxypropyl methylcellulose (HPMC) and 1% Tween80. Animals were dosed on body weight by oral gavage with a single dose (30 mg/kg) for PD studies. Necropsy included plasma collection for PUFA analysis. 10 μl of plasma or standards diluted in surrogate matrix (65 g/l bovine serum albumin in Dulbecco's phosphate-buffered saline) were mixed with 10 μl of an internal standard (100 μM alpha-linolenic acid-d14 (ALA-d14, Cayman Chemical)) in a 96 well plate. 100 μl of 2N NAOH was added to the mixture for subsequent saponification at 65° C. for 1 hour. The mixture was then acidified with 50 μl of formic acid followed by two consecutive hexane extractions. Hexane (500 μl) was added and the mixture thoroughly mixed by vortexing, followed by centrifugation at 4,000 rpm for 15 min. The hexane phase was transferred to a new 1 ml 96 well plate and the remaining aqueous layer was extracted with hexane. The organic extracts were combined and the solvent was removed by placing the plate under nitrogen gas at 55° C. 250 μl of 90% methanol was added to the plate followed by vortexing for 2 minutes. 200 μl of the samples were transferred to a new 96 well polypropylene plate. The samples were analyzed on a LC-MS/MS for the following PUFAs: arachidonic acid (AA), dihomo-gamma-linolenic acid (DGLA), with ALA-d14 as the internal standard. Description of the LC-MS/MS method: 5 μl of sample was injected onto a Poroshell 120 EC-C18 3.0×50 mm, 1.9 μm id column. […] The PUFA peak areas were quantified by using the SCIEX Analyst software. […] The relative decrease of the AA/DGLA ratio of the test compound administered group relative to the vehicle administered group was calculated and used as an index for the degree of D5D inhibition.
The results presented in Table 27 were obtained using certain compounds described herein in the in vivo protocol described above.

Delta-5-Desaturase (D5D) [3] = target: Delta-5-Desaturase (D5D) (Homo sapiens (Human), UniProt O60427); test: In vitro measurement of Delta-5-Desaturase inhibitory activity using DGLA-CoA and Arachidonyl-CoA mass spectrometric assays; format: biochemical; conditions: membrane preparations of D5D-overexpressing HEK293 6E cells; averaged over at least two independent runs
How it was run: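 DGLA-CoA and arachidonyl-CoA were read by RapidFire SPE triple-quad MS (negative mode, MRM) after a 1 h ambient-temperature reaction quenched with acetonitrile. Enzyme was D5D-overexpressing HEK293 6E membranes at 10 μg/mL final; substrate solution held 0.01 mM DGLA plus NADH, ATP and CoA. Inhibition was referenced to DMSO and no-enzyme wells; 4PL IC50.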

[4] = day 50-52, 10 mg/kg daily per os

Sequence of Delta-5-Desaturase (D5D) (Homo sapiens (Human), UniProt O60427) (O60427 whole entry, species assumed): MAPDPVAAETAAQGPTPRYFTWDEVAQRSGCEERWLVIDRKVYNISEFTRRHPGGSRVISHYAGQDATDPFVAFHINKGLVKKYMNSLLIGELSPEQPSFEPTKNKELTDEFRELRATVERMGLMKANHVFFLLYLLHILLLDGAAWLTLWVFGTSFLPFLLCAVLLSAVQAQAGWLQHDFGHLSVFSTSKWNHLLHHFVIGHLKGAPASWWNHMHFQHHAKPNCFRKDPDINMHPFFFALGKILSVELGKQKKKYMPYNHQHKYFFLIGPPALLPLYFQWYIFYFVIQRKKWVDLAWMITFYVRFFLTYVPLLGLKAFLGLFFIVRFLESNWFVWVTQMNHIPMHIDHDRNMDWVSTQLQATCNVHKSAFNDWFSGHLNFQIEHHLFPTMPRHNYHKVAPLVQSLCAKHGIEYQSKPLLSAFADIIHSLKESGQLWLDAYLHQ
Sequence of Delta-5-Desaturase (D5D) (Mus musculus (Mouse), UniProt Q920L1) (Q920L1 whole entry): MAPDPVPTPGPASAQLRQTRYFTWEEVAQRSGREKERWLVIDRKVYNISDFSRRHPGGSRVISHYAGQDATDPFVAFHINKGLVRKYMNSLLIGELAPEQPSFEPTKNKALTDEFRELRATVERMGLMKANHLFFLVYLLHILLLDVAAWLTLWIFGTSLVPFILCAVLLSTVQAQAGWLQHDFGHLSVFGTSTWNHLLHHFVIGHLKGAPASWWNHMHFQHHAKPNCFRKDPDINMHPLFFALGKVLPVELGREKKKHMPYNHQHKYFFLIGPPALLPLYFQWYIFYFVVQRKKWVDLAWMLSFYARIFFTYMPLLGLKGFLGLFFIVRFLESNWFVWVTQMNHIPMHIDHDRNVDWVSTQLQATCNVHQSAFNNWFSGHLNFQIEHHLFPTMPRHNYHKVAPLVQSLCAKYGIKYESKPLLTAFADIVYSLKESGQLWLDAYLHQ

SMILES | Food consumption ([1]; day 0-2, 10 mg/kg daily per os) | Food consumption [1, 4] | Blood glucose ([1]; 10 mg/kg daily per os) | Cholesterol ([1]; 10 mg/kg daily per os) | Insulin ([1]; 10 mg/kg daily per os) | LDL cholesterol ([1]; 10 mg/kg daily per os) | Triglycerides ([1]; 10 mg/kg daily per os) | Fat mass ([1]; 10 mg/kg daily per os) | Lean mass ([1]; 10 mg/kg daily per os) | AA ([1]; 10 mg/kg daily per os) | DGLA ([1]; 10 mg/kg daily per os) | Body weight ([1]; 10 mg/kg daily per os) | Liver weights ([1]; 10 mg/kg daily per os) | epididymal WAT ([1]; 10 mg/kg daily per os) | inguinal WAT ([1]; 10 mg/kg daily per os) | inhibition in vivo at 30 mg/kg (Delta-5-Desaturase (D5D) [2]) | pIC50 (Delta-5-Desaturase (D5D) [3]) | other results
COc1ccn2c(=O)c(-c3cnn(CC(F)(F)C(F)(F)F)c3)c(C(F)(F)F)nc2n1 [Example 1-34, 8-methoxy-3-(1-(2,2,3,3,3-pentafluoropropyl)-1H-pyrazol-4-yl)-2-(trifluoromethyl)-4H-pyrimido[1,2-a]pyrimidin-4-one] | 2.2 ± 0.1 g/day | 3.0 ± 0.1 g/day | 150.5 ± 8.3 mg/dL | 177.1 ± 12.6 mg/dL | 0.6 ± 0.2 ng/mL | 88.6 ± 9.2 mg/dL | 15.6 ± 2.3 mg/dL | 7.4 ± 0.9 g | 26.6 ± 0.7 g | 29.4 ± 0.9 µg/mL | 161.4 ± 8.5 µg/mL | 34.7 ± 1.6 g | 2.9 ± 0.3 g | 0.9 ± 0.1 g | 0.8 ± 0.1 g | 66% | 7.51 | –
COc1ccn2c(=O)c(-c3cnn(CC(F)(F)C(F)(F)F)c3)c(C(F)(F)F)nc2c1 [Example 1-68, 8-methoxy-3-(1-(2,2,3,3,3-pentafluoropropyl)-1H-pyrazol-4-yl)-2-(trifluoromethyl)-4H-pyrido[1,2-a]pyrimidin-4-one] | – | – | – | – | – | – | – | – | – | – | – | – | – | – | – | 80% | 7.94 | Food consumption ([1]; day 0-2, 30 mg/kg daily per os): 2.7 ± 0.1 g/day; Food consumption ([1]; day 50-52, 30 mg/kg daily per os): 2.6 ± 0.1 g/day; Blood glucose ([1]; 30 mg/kg daily per os): 146.6 ± 7.1 mg/dL; Cholesterol ([1]; 30 mg/kg daily per os): 166.2 ± 7.8 mg/dL; Insulin ([1]; 30 mg/kg daily per os): 1.1 ± 0.2 ng/mL; LDL cholesterol ([1]; 30 mg/kg daily per os): 86.5 ± 12.5 mg/dL; Triglycerides ([1]; 30 mg/kg daily per os): 14.5 ± 1.0 mg/dL; Fat mass ([1]; 30 mg/kg daily per os): 13.3 ± 1.0 g; Lean mass ([1]; 30 mg/kg daily per os): 26.7 ± 0.5 g; AA ([1]; 30 mg/kg daily per os): 38.0 ± 1.6 µg/mL; DGLA ([1]; 30 mg/kg daily per os): 258.4 ± 8.5 µg/mL; Body weight ([1]; 30 mg/kg daily per os): 40.7 ± 1.5 g; Liver weights ([1]; 30 mg/kg daily per os): 2.9 ± 0.2 g; epididymal WAT ([1]; 30 mg/kg daily per os): 1.6 ± 0.1 g; inguinal WAT ([1]; 30 mg/kg daily per os): 1.6 ± 0.2 g
N#Cc1ccn2c(=O)c(-c3cnn(CC(F)(F)C(F)(F)F)c3)c(C(F)(F)F)nc2c1 [Example 1-27, 4-oxo-3-(1-(2,2,3,3,3-pentafluoropropyl)-1H-pyrazol-4-yl)-2-(trifluoromethyl)-4H-pyrido[1,2-a]pyrimidine-8-carbonitrile] | 2.5 ± 0.1 g/day | 3.1 ± 0.1 g/day | 178.8 ± 7.5 mg/dL | 191.3 ± 14.5 mg/dL | 3.3 ± 1.2 ng/mL | 104.6 ± 9.1 mg/dL | 24.1 ± 1.2 mg/dL | 16.9 ± 0.5 g | 28.1 ± 0.5 g | 60.8 ± 1.9 µg/mL | 310.3 ± 13.7 µg/mL | 45.7 ± 1.1 g | 2.8 ± 0.2 g | 1.8 ± 0.1 g | 1.9 ± 0.1 g | 78% | 7.73 | –
